Data taken from US20060199816A1, “Aryl sulfonyl piperidines” (priority 2005, published 2006).

Biological target: human HSD1 (Homo sapiens, UniProt P28845)
Assay: in vitro inhibition of 11β-HSD1 (cortisone to cortisol conversion, time-resolved fluorescence)
Assay type: biochemical
Conditions: purified human HSD1, cortisone substrate, NADPH, 30 min incubation, time-resolved fluorescence readout; read-out: hHSD1 IC50
Procedure: Purified human HSD1 was diluted in 50 mM Tris-HCl, 100 mM NaCl, 0.1 mg/ml BSA, 0.02% Lubrol, 20 mM MgCl2, 10 mM glucose 6-phosphate, 0.4 mM NADPH, 60 U/ml glucose 6-phosphate dehydrogenase to a concentration of 1.5 ug/ml (Enzyme Solution). Cortisone (100 uM) in DMSO was diluted to 1 uM with 50 mM Tris-HCl, 100 mM NaCl (Substrate Solution). Testing compounds (40 uM) in DMSO was diluted 3 fold in series in DMSO and further diluted 20 fold in Substrate Solution. Enzyme Solution (10 ul/well) was added into 384 well microtiter plates followed by diluted compound solutions (10 ul/well) and mixed well. Samples were then incubated at […] for 30 min. EDTA/biotin-cortisol solution (10 ul/well) in 28 mM EDTA, 100 nM biotin-cortisol, 50 mM Tris-HCl, 100 mM NaCl was then added followed by 5 ul/well of anti-cortisol antibody (3.2 ug/ml) in 50 mM Tris-HCl, 100 mM NaCl, 0.1 mg/ml BSA and the solution was incubated at 37 degrees for 30 min. Five ul per well of Eu-conjugated anti-mouse IgG (16 nM) and APC-conjugated streptavidin (160 nM) in 50 mM Tris-HCl, 100 mM NaCl, 0.1 mg/ml BSA was added and the solution was incubated at room temperature for 2 hours. Signals were quantitated by reading time-resolved fluorescence on a Victor 5 reader (Wallac).
Percent inhibition of HSD1 activity by an agent at various concentrations was calculated by the formula % Inhibition=100*[1−(Fs−Fb)/(Ft−Fb)], where: • Fs is the fluorescence signal of the sample which included the agent, • Fb is the fluorescence signal in the absence of HSD1 and agent, • Ft is the fluorescence signal in the presence of HSD1, but no agent.
The inhibitory activities of test compounds were determined by the IC50s, or the concentration of compound that gave 50% inhibition.

Sequence of human HSD1 (P28845 whole entry): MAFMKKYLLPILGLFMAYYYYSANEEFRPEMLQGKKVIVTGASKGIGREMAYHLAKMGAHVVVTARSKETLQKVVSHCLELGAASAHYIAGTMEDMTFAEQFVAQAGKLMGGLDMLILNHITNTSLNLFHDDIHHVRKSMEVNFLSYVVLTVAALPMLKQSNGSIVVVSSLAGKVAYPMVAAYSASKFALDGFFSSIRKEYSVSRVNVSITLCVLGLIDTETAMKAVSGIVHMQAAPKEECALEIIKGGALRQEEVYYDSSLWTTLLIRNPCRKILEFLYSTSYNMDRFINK

SMILES | IC50 [nM]
CC(C)CCNC(=O)[C@@H]1CCCN(S(=O)(=O)c2ccccc2Cl)C1 [Example 2, (3R)-1-(2-Chloro-benzenesulfonyl)-piperidine-3-carboxylic acid (3-methyl-butyl)-amide] | 290
O=C(NCc1cccc2ccccc12)C1CCCN(S(=O)(=O)c2ccccc2Cl)C1 (stereo not drawn) [Example 43, 1-(2-Chloro-benzenesulfonyl)-piperidine-3-carboxylic acid (naphthalen-1-ylmethyl)-amide] | 25
Cc1c(Cl)cccc1S(=O)(=O)N1CCCC(C(=O)NCCCc2ccccc2)C1 (stereo not drawn) [Example 80, 1-(3-Chloro-2-methyl-benzenesulfonyl)-piperidine-3-carboxylic acid (3-phenyl-propyl)-amide] | 12000
Cc1ccccc1CNC(=O)C1CCCN(S(=O)(=O)c2ccc(F)cc2)C1 (stereo not drawn) [Example 128, 1-(4-Fluoro-benzenesulfonyl)-piperidine-3-carboxylic acid 2-methyl-benzylamide] | 3000
O=C(NCCc1cccc(Cl)c1)C1CCCN(S(=O)(=O)c2cccc3cccnc23)C1 (stereo not drawn) [Example 157, 1-(Quinoline-8-sulfonyl)-piperidine-3-carboxylic acid [2-(3-chloro-phenyl)-ethyl]-amide] | 910
CCC(COC)NC(=O)C1CCCN(S(=O)(=O)c2ccccc2)C1 (stereo not drawn) [Example 173, 1-Benzenesulfonyl-piperidine-3-carboxylic acid (1-methoxymethyl-propyl)-amide] | 940

The remaining lines, values ahead:

IC50 [nM] | SMILES
31 | CC(CNC(=O)C1CCCN(S(=O)(=O)c2ccccc2Cl)C1)c1ccccc1 (stereo not drawn) [Example 50]
47 | O=C(NC1CCCCC1)C1CCCN(S(=O)(=O)c2ccc3ccccc3c2)C1 (stereo not drawn) [Example 73, 1-(Naphthalene-2-sulfonyl)-piperidine-3-carboxylic acid cyclohexylamide]
390 | CC(C)c1ccc(S(=O)(=O)N2CCCC(C(=O)NC3CCCCC3)C2)cc1 (stereo not drawn) [Example 135, 1-(4-Isopropyl-benzenesulfonyl)-piperidine-3-carboxylic acid cyclohexylamide]
390 | O=C(NC1CCc2ccccc21)C1CCCN(S(=O)(=O)c2ccccc2)C1 (stereo not drawn) [Example 169, 1-Benzenesulfonyl-piperidine-3-carboxylic acid indan-1-ylamide]
3000 | Cc1ccccc1CNC(=O)C1CCCN(S(=O)(=O)c2ccccc2)C1 (stereo not drawn) [Example 175, 1-Benzenesulfonyl-piperidine-3-carboxylic acid 2-methyl-benzylamide]
190 | O=C(NC1CCCc2ccccc21)C1CCCN(S(=O)(=O)c2cccs2)C1 (stereo not drawn) [Example 187, 1-(Thiophene-2-sulfonyl)-piperidine-3-carboxylic acid (1,2,3,4-tetrahydro-naphthalen-1-yl)-amide]
